From publication PMC4213485, “Relevant and selective activity of Pancratium illyricum L. against Candida albicans clinical isolates: a combined effect on yeast growth and virulence” (BMC Complementary and Alternative Medicine, 2014)

Molecular target: T1, Clostridium hystolyticum collagenase (EC.3.4.23.3)
T1 construct: gene colH
Experiment: FALGPA hydrolysis, absorbance at […] nm
Format: biochemical, Hathewaya histolytica
Details: FALGPA substrate (2 mM stock), 50 mM Tricine, 10 mM CaCl2, 400 mM NaCl, pH 7.5, 15 min preincubation

O=C(O[C@@H]1Cc2c(O)cc(O)cc2O[C@@H]1c1cc(O)c(O)c(O)c1)c1cc(O)c(O)c(O)c1 [EGCG]
IC50: 9.45 ± 0.5 µM
